Measurements published in the supplement of paper PMC11208160.

Assay: recombinant UMI read abundance after kanamycin selection (control-corrected) (log10(CPM+1)); higher = more efficient recombination; extreme values may be limits of the assay; sequences stand for … in AGTGCAGAGAAAATCGGCCAGTTTTCTCTGCCTGCAGTCCGCATGCCGTGGGACCCCTTGGGTTCTAACCTGTTGCCTAGATTTATGCAGCGGACTGCCTTTCTCCCAAAGTGATAAACCGG…AGGTTGGTTTCACT; site = the 11-nt donor
Procedure, shortened: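 In Escherichia coli, a pool of donor and donor-binding-loop pairs, each with a 12-nt UMI, was tested for the IS621 bridge recombinase. Plating was on IPTG (0.07 mM) plus kanamycin, or without selection, in two replicates. Recombinant UMIs were amplified by PCR across the donor–target junction and sequenced, and counts were reported as log10(CPM+1) after averaging and control-derived scaling.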
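Also: IS621 bridge recombinase in Escherichia coli cells against a fixed T5 target plasmid.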

Sequence | recombinant UMI read abundance (log10)
CTAGTCTCATGGACCGGTTTTCCCGGTAATCCGTATTTGAG (site CTAGTCTCTCT) | 0.61
CTAGTCTCATGGACCGGTTTTCCCGGTAATCCGTATTTGTC (site CTAGTATCTGT) | 0.445
CTAGTCTCATGGACCGGTTTTCCCGGTAATCCGTATTTGTC (site CTAGTCTCTGA) | 3.48
CTAGTTGCATGGACCGGTTTTCCCGGTAATCCGTATTTGAC (site CTAGTATCTGT) | 0.412
CTAGTTGCATGGACCGGTTTTCCCGGTAATCCGTATTTGAC (site CTAGTTGCTGT) | 2.24
CTATAGCCATGGACCGGTTTTCCCGGTAATCCGTATTTGCG (site CTATAGCCTCG) | 1.01
CTATATCCATGGACCGGTTTTCCCGGTAATCCGTATTTGTA (site CTATATCCTTA) | 1.51
CTATCATCATGGACCGGTTTTCCCGGTAATCCGTATTTGAT (site CTATCATCTAT) | 0.00941
CTATGATCATGGACCGGTTTTCCCGGTAATCCGTATTTGCA (site CTATGATCTTG) | 2.62
CTATGCTCATGGACCGGTTTTCCCGGTAATCCGTATTTGAA (site CAATGCTCTTT) | 0.941
CTATGCTCATGGACCGGTTTTCCCGGTAATCCGTATTTGAA (site CCATGCTCTTT) | 0.497
CTATGCTCATGGACCGGTTTTCCCGGTAATCCGTATTTGAA (site CGATGCTCTTT) | 0.383
CTATGCTCATGGACCGGTTTTCCCGGTAATCCGTATTTGAA (site CTATGCTCTTT) | 2.25
CTATTACCATGGACCGGTTTTCCCGGTAATCCGTATTTGAG (site CTATTACCTCT) | 0.00551
CTATTATCATGGACCGGTTTTCCCGGTAATCCGTATTTGAC (site CTAATATCTGT) | 0
CTATTATCATGGACCGGTTTTCCCGGTAATCCGTATTTGAC (site CTACTATCTGT) | 1.96
CTATTATCATGGACCGGTTTTCCCGGTAATCCGTATTTGAC (site CTAGTATCTGT) | 1.61
CTATTATCATGGACCGGTTTTCCCGGTAATCCGTATTTGAC (site CTATTATCTGT) | 2.82
CTATTATCATGGACCGGTTTTCCCGGTAATCCGTATTTGAT (site CTAGTATCTGT) | 0

Sequence | recombinant UMI read abundance (log10)
CTATTATCATGGACCGGTTTTCCCGGTAATCCGTATTTGAT (site CTATTATCTAT) | 1.18
CTATTTCCATGGACCGGTTTTCCCGGTAATCCGTATTTGGA (site CTATTTCCTTC) | 0
CTCAATTCATGGACCGGTTTTCCCGGTAATCCGTATTTGCT (site CTCAATTCTAG) | 1.7
CTCACAACATGGACCGGTTTTCCCGGTAATCCGTATTTGTG (site CTCACAACTCA) | 0
CTCACACCATGGACCGGTTTTCCCGGTAATCCGTATTTGTC (site CTCACACCTGA) | 0
CTCACGCCATGGACCGGTTTTCCCGGTAATCCGTATTTGTG (site CTCACGCCTCA) | 0
CTCACTACATGGACCGGTTTTCCCGGTAATCCGTATTTGAG (site CTCACTACTCT) | 0.232
CTCACTACATGGACCGGTTTTCCCGGTAATCCGTATTTGAG (site CTCCCTACTCT) | 0
CTCACTACATGGACCGGTTTTCCCGGTAATCCGTATTTGAG (site CTCGCTACTCT) | 0
CTCACTACATGGACCGGTTTTCCCGGTAATCCGTATTTGAG (site CTCTCTACTCT) | 0
CTCACTCCATGGACCGGTTTTCCCGGTAATCCGTATTTGTA (site CTCACTCCTTA) | 0.981
CTCATACCATGGACCGGTTTTCCCGGTAATCCGTATTTGGT (site CTCATACCTAC) | 0
CTCATATCATGGACCGGTTTTCCCGGTAATCCGTATTTGAC (site CTAGTATCTGT) | 0
CTCATATCATGGACCGGTTTTCCCGGTAATCCGTATTTGAC (site CTCATATCTGT) | 1.29
CTCATTTCATGGACCGGTTTTCCCGGTAATCCGTATTTGTG (site CTCATTTCTCA) | 0
CTCCAAGCATGGACCGGTTTTCCCGGTAATCCGTATTTGAG (site ATCCAAGCTCT) | 0.0148
CTCCAAGCATGGACCGGTTTTCCCGGTAATCCGTATTTGAG (site CTCCAAGCTCT) | 0.456
CTCCAAGCATGGACCGGTTTTCCCGGTAATCCGTATTTGAG (site GTCCAAGCTCT) | 0.0157
